The text below walks through data of patent US7727967B2, “Cyanooxime inhibitors of carbonyl reductase and methods of using said inhibitors in treatments involving anthracyclines” (Boise State University, priority 2006, dated 2010).

Data set [1] addresses T1, carbonyl reductase (Homo sapiens, UniProt P16152).
T1 sequence (P16152 1-277): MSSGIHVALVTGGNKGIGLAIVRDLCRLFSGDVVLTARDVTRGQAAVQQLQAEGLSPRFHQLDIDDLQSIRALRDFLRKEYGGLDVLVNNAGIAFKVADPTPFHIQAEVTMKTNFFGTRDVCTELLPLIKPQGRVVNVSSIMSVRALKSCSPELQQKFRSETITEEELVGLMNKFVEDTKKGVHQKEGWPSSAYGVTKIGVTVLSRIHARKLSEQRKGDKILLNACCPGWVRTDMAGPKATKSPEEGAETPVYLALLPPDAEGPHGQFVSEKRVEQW
Put plainly: Inhibition of carbonyl reductase by arylcyanooximes (1/rate vs. 1/substrate, menadione and NADPH as varied substrates). The data set is classed as biochemical. The settings on record: for Ki: uncompetitive against both coenzyme and carbonyl substrates, range over the six compounds, read-out: Kii (intercept inhibition constant). On the procedure:
FIG. 6 describes inhibition patterns seen with inhibitors C1, C2, C3, C4, C5, and C6 wherein KII stands for the intercept inhibition constant.
Six arylcyanooximes (C1, C2, C3, C4, C5, and C6) were tested as possible inhibitors for carbonyl reductase. (See the syntheses described earlier in this disclosure). […] See FIGS. 5 A and B, portraying the 1/rate vs. 1/substrate concentration taken with C5, with menadione and NADPH as the varied substrates, respectively. […] Therefore, while compositions comprising C5 are preferred, compositions comprising C1, C2, C3, C4, and/or C6 are also included in embodiments of the invention and are also expected by the inventors to be beneficial in the methods of the invention.

The subject of data set [2] is A549 adenocarcinoma cells. The conditions noted are these: coadministered with daunorubicin; cited from earlier work.
Data set [3] deals with T1, carbonyl reductase. The conditions noted are these: cited from earlier work.

What is called melting point is the temperature, or range, at which the solid turns liquid. In turn, `N#CC(=NO)c1cc(F)ccc1F` [C3, oximino(2,5-difluorophenyl)acetonitrile] showed a melting point of 64 to 67 °C. Besides, in data set [1], the “inhibition pattern against the carbonyl substrate” value was “uncompetitive inhibitors”; the “inhibition pattern against both coenzyme and carbonyl substrates” value is recorded as “uncompetitive inhibitors”; the Ki is 10.8 to 72 µM.
The compound `N#CC(=NO)c1c(Cl)cccc1Cl` [C6, oximino(2,6-dichlorophenyl)acetonitrile] displayed a melting point of 94 to 96 °C. Also, in data set [1], the “inhibition pattern against the carbonyl substrate” value is “uncompetitive inhibitors”; the “inhibition pattern against both coenzyme and carbonyl substrates” value was “uncompetitive inhibitors”; the Ki was in the range of 10.8 to 72 µM.
For the compound `N#CC(=NO)c1c(F)cccc1Cl` [C4, oximino(2-chloro-6-fluorophenyl)acetonitrile], in data set [1], the “inhibition pattern against the carbonyl substrate” value is recorded as “uncompetitive inhibitors”; the “inhibition pattern against both coenzyme and carbonyl substrates” value is listed as “uncompetitive inhibitors”; the Ki lay in the range of 10.8 to 72 µM.
Compound `N#CC(=NO)c1c(F)cccc1F` [C2, oximino(2,6-difluorophenyl)acetonitrile] came in with a melting point of 99 to 100 °C. Besides, in data set [1], the “inhibition pattern against the carbonyl substrate” value is recorded as “uncompetitive inhibitors”; the “inhibition pattern against both coenzyme and carbonyl substrates” value is “uncompetitive inhibitors”; the Ki lay within 10.8 to 72 µM.
In turn, `N#CC(=NO)c1ccc(Cl)cc1Cl` [C5, oximino(2,4-dichlorophenyl)acetonitrile] displayed a melting point of 151 °C. Further, in data set [1], the “potency as inhibitor of carbonyl reductase (in words)” value is “potent inhibitor”; the “inhibition pattern against the carbonyl substrate” value is given as “uncompetitive inhibitors”; the “inhibition pattern against both coenzyme and carbonyl substrates” value is “uncompetitive inhibitors”; the Ki fell in the range of 10.8 to 72 µM. Besides, the “inhibition pattern against NADPH” value in data set [1] (NADPH as varied substrate (FIG. 5B)) was “uncompetitive inhibitor”. The “inhibition pattern against menadione” value in data set [1] (menadione as varied substrate (FIG. 5A)) was “uncompetitive inhibitor”.
`CNc1ncnc2c1c(-c1cccc(O)c1)cn2C(C)C` [3-(7-isopropyl-4-(methylamino)-7H-pyrrolo[2,3-d]pyrimidin-5-yl)phenol]: in data set [2], the “effect on cytotoxicity of daunorubicin” value is listed as “enhance the cytotoxicity of daunorubicin”. Moreover, in data set [3], the “potency as inhibitor of human carbonyl reductase (in words)” value was “potent inhibitor”.
Compound `N#CC(=NO)c1ccc(F)cc1F` [C1, oximino(2,4-difluorophenyl)acetonitrile] registered a melting point of 64 to 65 °C. For the same compound, in data set [1], the “inhibition pattern against the carbonyl substrate” value is given as “uncompetitive inhibitors”; the “inhibition pattern against both coenzyme and carbonyl substrates” value is “uncompetitive inhibitors”; the Ki lay in the range of 10.8 to 72 µM.
